Test results reported in patent publication US7504362B2, “Pesticidal compositions” (Merial Limited, priority 2002, dated 2009).

tested on: Ctenocephalides felis, Diabrotica undecimpunctata, Nephotettix cincticeps or Rhipicephalus sanguineus; assay: Pooled statement: active in one or more of the above tests (Methods A to E); assay type: in vivo; conditions: active = reaching the threshold of Method A, B, C, D or E; test not given per compound
Description: The following representative test procedures, using compounds of the invention, were conducted to determine the parasiticidal and pesticidal activity of compounds of the invention.
A test container was filled with 10 adults of Ctenocephalides felis. A glass cylinder was closed on one end with parafilm and placed on top of the test container. The test compound solution was then pipetted into bovine blood and added to the glass cylinder. The treated Ctenocephalides felis were held in this artificial dog test (blood 37° C., 40-60% relative humidity; Ctenocephalides felis 20-22° C., 40-60% relative humidity) and assessment performed at 24 and 48 hours after application. Active compounds gave at least 90% control of Ctenocephalides felis at a test concentration of 5 ppm or less.
Two days before application, seeds of maize were soaked in water under warm conditions to elicit fast germination. One day before application, eggs of Diabrotica undecimpunctata were transferred to one half of a Japanese filter paper placed in a plastic petri dish. Afterwards, a sprouted maize seed was placed on a moistened pad beside the filter paper. Three drops of 200 microliters of test compound solution were carefully pipetted onto the egg. The remainder of the solution was placed on the maize and then the Petri dish was closed. The treated eggs in the Petri dishes were held in a climate chamber for 6 days. The compound efficacy (percentage of dead eggs and/or larvae in comparison to untreated control) was assessed 6 days after application using a binocular microscope.
Active compounds gave at least 90% control of Diabrotica undecimpunctata at a test concentration of 10 ppm.
The leaves of 12 rice plants having a stem length of 8 cm were dipped for 5 seconds into an aqueous solution of the formulated test compound. After the solution had run off, the rice plants treated in this manner were placed in a Petri dish and populated with about 20 larvae (L3 stage) of Nephotettix cincticeps. The Petri dish was closed and then stored in a climate chamber (16 hours of light/day, 25° C., 40-60% relative humidity). After 6 days storage, the percentage mortality of leafhopper larvae was determined.
Active compounds gave at least 98% mortality of Nephotettix cinciceps larvae at a test concentration of 100 ppm.
Solutions of the test compounds were dropped onto filter paper, dried and the filter paper placed into test tubes and infested with 10 adults of Ctenocephalides felis. The treated Ctenocephalides felis were held in a climate chamber (26° C., 80% RH) and the percentage efficacy assessed 24 hours and 48 hours after application in comparison with the untreated control.
Active compounds gave at least 70% contact control of Ctenocephalides felis at a test concentration of 1000 ppm.
Solutions of the test compounds were dropped onto filter paper, dried and the filter paper placed into test tubes and infested with 20-30 larvae (L1) of Rhipicephalus sanguineus and the tubes closed with a clip. The treated Rhipicephalus sanguineus were held in a climate chamber (25° C., 90% RH) and the percentage efficacy assessed 24 hours after application in comparison with the untreated control. Active compounds gave at least 70% contact control of Rhipicephalus sanguineus at a test concentration of 100 ppm.

Compound	active in one or more of the above tests
CCCCCCCCCCS(=O)(=O)N(C)c1c([S+]([O-])C(F)(F)F)c(C#N)nn1-c1c(Cl)cc(C(F)(F)F)cc1Cl (centres unmarked) [Compound 1-95]	active
CN(c1c(SC(F)(F)F)c(C#N)nn1-c1c(Cl)cc(C(F)(F)F)cc1Cl)S(=O)(=O)c1ccccc1Cl [Compound 5-1]	active
CN(c1c(SC(F)(F)F)c(C#N)nn1-c1c(Cl)cc(C(F)(F)F)cc1Cl)S(=O)(=O)c1cc(Cl)cc(Cl)c1 [Compound 5-42]	active
CN(c1c([S+]([O-])C(F)(F)F)c(C#N)nn1-c1c(Cl)cc(C(F)(F)F)cc1Cl)S(=O)(=O)c1ccc(C(C)(C)C)cc1 (centres unmarked) [Compound 5-83]	active
CC(C)S(=O)(=O)N(C)c1c([S+]([O-])C(F)(F)F)c(C#N)nn1-c1c(Cl)cc(C(F)(F)F)cc1Cl (centres unmarked) [Compound 1-85]	active
CCCCCCCCCCCCS(=O)(=O)N(C)c1c([S+]([O-])C(F)(F)F)c(C#N)nn1-c1c(Cl)cc(C(F)(F)F)cc1Cl (centres unmarked) [Compound 1-96]	active
CN(c1c(S(=O)(=O)C(F)(F)F)c(C#N)nn1-c1c(Cl)cc(C(F)(F)F)cc1Cl)S(=O)(=O)Cc1cc(C(F)(F)F)cc(C(F)(F)F)c1 [Compound 2-129]	active
CN(c1c([S+]([O-])C(F)(F)F)c(C#N)nn1-c1c(Cl)cc(C(F)(F)F)cc1Cl)S(=O)(=O)C(Cl)(Cl)Cl (centres unmarked) [Compound 1-118]	active
CCCCCCCCCCS(=O)(=O)N(C)c1c(SC(F)(F)F)c(C#N)nn1-c1c(Cl)cc(C(F)(F)F)cc1Cl [Compound 1-125]	active
CN(c1c(SC(F)(F)F)c(C#N)nn1-c1c(Cl)cc(C(F)(F)F)cc1Cl)S(=O)(=O)Cc1ccc(F)cc1 [Compound 2-51]	active
Cc1ccc(S(=O)(=O)N(C)c2c([S+]([O-])C(F)(F)F)c(C#N)nn2-c2c(Cl)cc(C(F)(F)F)cc2Cl)cc1 (centres unmarked) [Compound 5-77]	active
CN(c1c(SC(F)(F)F)c(C#N)nn1-c1c(Cl)cc(C(F)(F)F)cc1Cl)S(=O)(=O)c1ccccc1 [Compound 5-36]	active
CN(c1c(SC(F)(F)F)c(C#N)nn1-c1c(Cl)cc(C(F)(F)F)cc1Cl)S(=O)(=O)Cc1cc(Cl)cc(Cl)c1 [Compound 2-149]	active
CN(c1c(S(=O)(=O)C(F)(F)F)c(C#N)nn1-c1c(Cl)cc(C(F)(F)F)cc1Cl)S(=O)(=O)Cc1ccc(C(F)(F)F)cc1 [Compound 2-128]	active
CN(c1c([S+]([O-])C(F)(F)F)c(C#N)nn1-c1c(Cl)cc(C(F)(F)F)cc1Cl)S(C)(=O)=O (centres unmarked) [Compound 1-16]	active
Cc1ccc(CS(=O)(=O)N(C)c2c(S(=O)(=O)C(F)(F)F)c(C#N)nn2-c2c(Cl)cc(C(F)(F)F)cc2Cl)cc1 [Compound 2-144]	active
CN(c1c(S(=O)(=O)C(F)(F)F)c(C#N)nn1-c1c(Cl)cc(C(F)(F)F)cc1Cl)S(=O)(=O)C=Cc1ccccc1 [Compound 1-115]	active
COc1ccc(S(=O)(=O)N(C)c2c(SC(F)(F)F)c(C#N)nn2-c2c(Cl)cc(C(F)(F)F)cc2Cl)cc1 [Compound 5-22]	active
Cc1ccc(S(=O)(=O)N(C)c2c(SC(F)(F)F)c(C#N)nn2-c2c(Cl)cc(C(F)(F)F)cc2Cl)cc1 [Compound 5-32]	active
CCS(=O)(=O)N(C)c1c(S(=O)(=O)C(F)(F)F)c(C#N)nn1-c1c(Cl)cc(C(F)(F)F)cc1Cl [Compound 1-72]	active
CN(c1c([S+]([O-])C(F)(F)F)c(C#N)nn1-c1c(Cl)cc(C(F)(F)F)cc1Cl)S(=O)(=O)Cc1ccc(Cl)s1 (centres unmarked) [Compound 4-35]	active

Compound	active in one or more of the above tests
CN(c1c([S+]([O-])C(F)(F)F)c(C#N)nn1-c1c(Cl)cc(C(F)(F)F)cc1Cl)S(=O)(=O)c1cccc2ccccc12 (centres unmarked) [Compound 5-89]	active
CN(c1c([S+]([O-])C(F)(F)F)c(C#N)nn1-c1c(Cl)cc(C(F)(F)F)cc1Cl)S(=O)(=O)c1ccc(-c2ccc(Cl)c(Cl)c2)cc1 (centres unmarked) [Compound 5-150]	active
CN(c1c([S+]([O-])C(F)(F)F)c(C#N)nn1-c1c(Cl)cc(C(F)(F)F)cc1Cl)S(=O)(=O)c1ccc(F)cc1 (centres unmarked) [Compound 5-54]	active
CN(c1c([S+]([O-])C(F)(F)F)c(C#N)nn1-c1c(Cl)cc(C(F)(F)F)cc1Cl)S(=O)(=O)c1ccc(-c2ccc(F)cc2)cc1 (centres unmarked) [Compound 5-151]	active
CN(c1c([S+]([O-])C(F)(F)F)c(C#N)nn1-c1c(Cl)cc(C(F)(F)F)cc1Cl)S(=O)(=O)c1ccc([N+](=O)[O-])cc1 (centres unmarked) [Compound 5-88]	active
Cc1ccc(CS(=O)(=O)N(C)c2c(SC(F)(F)F)c(C#N)nn2-c2c(Cl)cc(C(F)(F)F)cc2Cl)cc1 [Compound 2-74]	active
Cc1ccc(CS(=O)(=O)N(C)c2c([S+]([O-])C(F)(F)F)c(C#N)nn2-c2c(Cl)cc(C(F)(F)F)cc2Cl)cc1 (centres unmarked) [Compound 2-109]	active
CCCCCCCCS(=O)(=O)N(C)c1c([S+]([O-])C(F)(F)F)c(C#N)nn1-c1c(Cl)cc(C(F)(F)F)cc1Cl (centres unmarked) [Compound 1-123]	active
CN(c1c(S(=O)(=O)C(F)(F)F)c(C#N)nn1-c1c(Cl)cc(C(F)(F)F)cc1Cl)S(=O)(=O)Cc1cccc(C(F)(F)F)c1 [Compound 2-127]	active
CCCCCCCCCCCCS(=O)(=O)N(C)c1c([S+]([O-])C(F)(F)F)c(C#N)nn1-c1c(Cl)cc(C(F)(F)F)cc1Cl (centres unmarked) [Compound 1-126]	active
CN(c1c(S(=O)(=O)C(F)(F)F)c(C#N)nn1-c1c(Cl)cc(C(F)(F)F)cc1Cl)S(=O)(=O)Cc1cccs1 [Compound 4-34]	active
Cc1cccc(S(=O)(=O)N(C)c2c(SC(F)(F)F)c(C#N)nn2-c2c(Cl)cc(C(F)(F)F)cc2Cl)c1 [Compound 5-30]	active
Cc1cccc(S(=O)(=O)N(C)c2c([S+]([O-])C(F)(F)F)c(C#N)nn2-c2c(Cl)cc(C(F)(F)F)cc2Cl)c1 (centres unmarked) [Compound 5-75]	active
CN(c1c([S+]([O-])C(F)(F)F)c(C#N)nn1-c1c(Cl)cc(C(F)(F)F)cc1Cl)S(=O)(=O)Cc1cccc(C(F)(F)F)c1 (centres unmarked) [Compound 2-92]	active
CCCCCCCCCS(=O)(=O)N(C)c1c([S+]([O-])C(F)(F)F)c(C#N)nn1-c1c(Cl)cc(C(F)(F)F)cc1Cl (centres unmarked) [Compound 1-94]	active
CS(=O)(=O)[N-]c1c(SC(F)(F)F)c(C#N)nn1-c1c(Cl)cc(C(F)(F)F)cc1Cl.[Na+] [Compound 1-116]	active
CN(c1c(SC(F)(F)F)c(C#N)nn1-c1c(Cl)cc(C(F)(F)F)cc1Cl)S(=O)(=O)c1ccc(F)cc1 [Compound 5-9]	active
CN(c1c([S+]([O-])C(F)(F)F)c(C#N)nn1-c1c(Cl)cc(C(F)(F)F)cc1Cl)S(=O)(=O)Cc1ccc(Cl)cc1 (centres unmarked) [Compound 2-80]	active
CN(c1c([S+]([O-])C(F)(F)F)c(C#N)nn1-c1c(Cl)cc(C(F)(F)F)cc1Cl)S(=O)(=O)C(F)(F)F (centres unmarked) [Compound 1-90]	active
CCCCS(=O)(=O)N(C)c1c(S(=O)(=O)C(F)(F)F)c(C#N)nn1-c1c(Cl)cc(C(F)(F)F)cc1Cl [Compound 1-120]	active
